Source: patent US20100055065A1, “AGENT FOR INHIBITING PRODUCTION OF HEPATITIS C VIRUS AND ITS USE” (MIYAZAKI PREFECTURAL INDUSTRIAL SUPPORT FOUNDATION, priority 2008, published 2010)
Values after ≈ are worked out from the molar mass of the structure shown.

What was measured:
HCV replicon = assay: HCV replication suppressive activity test (replicon assay, luciferase); assay type: cell-based, Hepatitis C virus; conditions: for HCV replication suppressive (inhibitory) activity, in words: replicon cell assay
Experimental: The HCV-replicon cell line was established by transducing sub-genomic RNA into human hepatoma Huh-7 cell cytoplasm. The sub-genomic RNA was prepared by replacing the translated region of HCV genome RNA structural proteins with firefly luciferase gene, internal ribosome entry site (IRES) of the encephalomyocarditis virus and neomycin phosphotransferase gene. The cell line obtained was used for assessment of production of HCV replicon RNA. The production quantity of HCV replicon RNA was measured by the luciferase assay method. (Lohmann et al., Science 285, (1999) 110; Sakamoto et al. Nat. Chem. Biol. 1, (2005) 333)
In order to determine replication quantity of HCV-RNA, luciferase genes from firefly were transduced into HCV-RNA as a reporter gene. The gene transduction was carried out according to the method of Krieger et al. (See; Krieger et al. J. virol. 75, (2001) 4614) in such manner that luciferase genes were fused together neomycin-resistant genes beneath the IRES of HCV gene.
With this HCV subgenome, the replication efficiency of HCV could be estimated by measuring luciferase activity in the HCV replicon cells. The HCV replicon cells used were routinely grown in DMEM (Gibco cat. No. 10569-010) supplemented with Glutamax (Invitrogen), 10% fetal bovine serum (FBS), 1% penicillin/streptomycin (Invitrogen) and 500 μg/ml G418 (Invitrogen). The cells were maintained at 37° C. in humidified atmosphere containing 5% CO2. For the HCV replication assay, the replicon cells in DMEM supplemented with Glutamax and 5% FBS were seeded in a 96-well plate so as to fill every well with 5000 cells, and incubated for 24 hours.
The test was carried out in such a way that the HCV replicon cells were cultured for 72 hours after adding test samples in different concentrations. The Quantity of the luciferase activity was determined by the Steady-Glo Luciferase Assay System (Promega) according to the manufacture's instructions and the luminescence was measured by DTX 800 Multimode Detector (Beckman). In this test, the replication inhibitory activity is expressed as a concentration of samples required for inhibiting 50 percents of the replication of HCV replicon cell (IC50). Specific activity is a reciprocal number of IC50 (1/IC50). Total activity is calculated by multiplying the yield weight of the HCV replicon cell by specific activity.

[1] = test system: HCV replicon cells (human hepatoma Huh-7); assay: Cytotoxicity test (Cell Counting Kit-8); assay type: cell-based; conditions: Table 1
Experimental: (§1) The cytotoxicity of the samples was measured by Cell Counting Kit-8 (CCK-8; Dojindo Molecular Technologies) according to the manufacture's instructions. Briefly, 10 μl/a well of CCK-8 reagent were added to the HCV replicon cells cultured in a 96-well plate and then incubated at 37° C. for 60 min. The absorbance of each well was measured at 450 nm with a reference wavelength at 650 nm using an Emax Precision microplate reader (Molecular Devices Inc.). Cell viability was calculated as relative index of control cells and effects of samples and was expressed as the concentration of samples required for 50% cytotoxicity of the cells (CC50).

[2] = Cytotoxicity test (Cell Counting Kit-8); assay type: cell-based, human; conditions: human; HCV replicon cells; Table 1
Experimental: as §1

[3] = HCV replicon cells, 72 hours, Table 1

Oc1cc(O)c2c(c1)O[C@H](c1ccc(O)c(O)c1)[C@H](O)[C@H]2c1c(O)cc(O)c2c1O[C@H](c1ccc(O)c(O)c1)[C@H](O)C2 [Procyanidin B2]
Replication suppressive activity IC50 (HCV replicon; [3]): >25.0 µg/mL | HCV replication suppressive (inhibitory) activity, in words (HCV replicon): no anti-HCV production activity | Cytotoxicity CC50 [1]: >25.0 µg/mL

Oc1cc(O)c2c(c1)O[C@H](c1ccc(O)c(O)c1)[C@H](O)C2 [Epicatechin]
IC50 (HCV replicon; Hepatitis C virus, HCV replicon cells, 72 hours, Table 1): 27.3 µg/mL (≈ 94.1 µM) | Ratio CC50/IC50 (HCV replicon; Table 1): 4.2 | CC50 [2]: 114 µg/mL (≈ 392 µM)

Catechin
Replication suppressive activity IC50 (HCV replicon; [3]): 16.18 µg/mL | Ratio CC50/IC50 (HCV replicon; Table 1): 6.2 | HCV replication suppressive (inhibitory) activity, in words (HCV replicon): no anti-HCV production activity

O=C(/C=C/c1ccc(O)c(O)c1)O[C@@H]1C[C@](O)(C(=O)O)C[C@@H](O)[C@H]1O [chlorogenic acid]
HCV replication suppressive (inhibitory) activity, in words (HCV replicon): seem not to have the inhibition activity
